According to patent US11484561B2, “Morus extracts rich in N-acids of imino sugars and or pipecolic acids” (Phynova Limited, priority 2011, dated 2022):

Experiments:
Format in all cases: biochemical
[1] = test system: β-D-mannosidase Cellulomonas fimi; test: Glycosidase assay, β-D-mannosidase (Cellulomonas fimi); conditions: Table 16; % inhibition; concentration not given
Description: (§1) The assays used p-nitrophenyl-substrates and commercial enzymes purchased from Sigma-Aldrich. Enzymes were assayed at 27° C. in 0.1M citric acid/0.2M disodium hydrogen phosphate buffers at the optimum pH for the enzyme. The incubation mixture consisted of 10 μl enzyme solution, 10 μl of 10 mg/ml aqueous solution of extract and 50 μl of the appropriate 5 mM p-nitrophenyl substrate made up in buffer at the optimum pH for the enzyme. The reactions were stopped by addition of 70 μl 0.4M glycine (pH 10.4) during the exponential phase of the reaction, which had been determined at the beginning using uninhibited assays in which water replaced mulberry fractions. Final absorbances were read at 405 nm using a Versamax microplate reader (Molecular Devices). Assays were carried out in triplicate, and the values given are means of the three replicates per assay. Results are expressed as % inhibition.

[2] = test system: α-D-glucosidase (Bacillus); test: Glycosidase assay, α-D-glucosidase (Bacillus); conditions: Table 16; % inhibition; concentration not given
Description: as §1
(§2) Substrates are 10 mM p-nitrophenyl-glycopyranosides. Enzymes are purchased from Sigma and run at the pH optima

[3] = molecular target: T1, β-glucuronidase (bovine liver) (Bos taurus, UniProt A3KMY8); test: Glycosidase assay, β-glucuronidase (bovine liver); conditions: read-out: IC50 against bovine liver β-glucuronidase
T1 construct: purchased Sigma-Aldrich; host or cells: bovine liver
T1 sequence (A3KMY8 1-652): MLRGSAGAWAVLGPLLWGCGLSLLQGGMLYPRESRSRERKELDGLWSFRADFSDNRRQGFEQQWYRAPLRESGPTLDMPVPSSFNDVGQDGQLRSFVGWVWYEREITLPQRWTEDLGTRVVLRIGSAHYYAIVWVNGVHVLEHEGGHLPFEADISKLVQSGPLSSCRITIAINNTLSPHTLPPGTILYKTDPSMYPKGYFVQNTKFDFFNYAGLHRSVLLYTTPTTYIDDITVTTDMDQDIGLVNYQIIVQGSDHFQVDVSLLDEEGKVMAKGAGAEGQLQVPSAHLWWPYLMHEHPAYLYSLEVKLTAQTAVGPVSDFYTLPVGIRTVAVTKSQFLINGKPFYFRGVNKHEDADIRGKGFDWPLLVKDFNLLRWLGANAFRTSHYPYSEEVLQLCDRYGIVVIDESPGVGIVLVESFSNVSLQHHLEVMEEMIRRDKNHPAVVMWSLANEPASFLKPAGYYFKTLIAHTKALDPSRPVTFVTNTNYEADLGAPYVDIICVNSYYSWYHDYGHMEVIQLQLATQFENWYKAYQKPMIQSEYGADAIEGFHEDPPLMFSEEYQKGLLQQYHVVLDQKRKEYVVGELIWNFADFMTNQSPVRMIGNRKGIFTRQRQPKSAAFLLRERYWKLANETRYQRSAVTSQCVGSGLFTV
Description: as §1, §2

[4] = molecular target: T2, α-D-galactosidase (green coffee bean) (Coffea arabica, UniProt Q42656); test: Glycosidase assay, α-D-galactosidase (green coffee bean); conditions: Table 16; % inhibition; concentration not given
T2 construct: purchased Sigma-Aldrich
Description: as §1, §2

α-L-fucosidase (bovine) = molecular target: T3, α-L-fucosidase (bovine) (Bos taurus, UniProt Q2KIM0); test: Glycosidase assay, α-L-fucosidase (bovine); conditions: Table 16; % inhibition; concentration not given
T3 construct: purchased Sigma-Aldrich
T3 sequence (Q2KIM0 23-468): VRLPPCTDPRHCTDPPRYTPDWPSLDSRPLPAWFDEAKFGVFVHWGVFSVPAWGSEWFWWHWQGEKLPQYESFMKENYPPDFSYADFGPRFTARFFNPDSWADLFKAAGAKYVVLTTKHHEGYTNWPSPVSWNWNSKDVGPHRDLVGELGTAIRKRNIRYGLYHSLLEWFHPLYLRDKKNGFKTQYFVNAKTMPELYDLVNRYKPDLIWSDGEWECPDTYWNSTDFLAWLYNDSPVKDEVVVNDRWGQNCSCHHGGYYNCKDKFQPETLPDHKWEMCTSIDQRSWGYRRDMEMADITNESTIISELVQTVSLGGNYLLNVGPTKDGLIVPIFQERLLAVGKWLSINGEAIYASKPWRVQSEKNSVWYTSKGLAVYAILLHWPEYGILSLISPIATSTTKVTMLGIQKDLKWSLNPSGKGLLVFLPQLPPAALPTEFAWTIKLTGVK
Description: as §1

[5] = test system: N-acetyl-β-D-gluc (Bovine kidney); test: Glycosidase assay, N-acetyl-β-D-gluc (Bovine kidney); conditions: Table 16; % inhibition; concentration not given
Description: as §1, §2

α-D-glucosidase (rice) = molecular target: T4, α-D-glucosidase (rice) (Oryza sativa subsp. japonica, UniProt Q653V7); test: Glycosidase assay, α-D-glucosidase (rice); conditions: Table 16; % inhibition; concentration not given
T4 construct: purchased Sigma-Aldrich
Description: as §1, §2

[6] = molecular target: T5, β-D-galactosidase (bovine) (Bos taurus, UniProt Q58D55); test: Glycosidase assay, β-D-galactosidase (bovine); conditions: Table 16; % inhibition; concentration not given
T5 construct: purchased Sigma-Aldrich
T5 sequence (Q58D55 28-653): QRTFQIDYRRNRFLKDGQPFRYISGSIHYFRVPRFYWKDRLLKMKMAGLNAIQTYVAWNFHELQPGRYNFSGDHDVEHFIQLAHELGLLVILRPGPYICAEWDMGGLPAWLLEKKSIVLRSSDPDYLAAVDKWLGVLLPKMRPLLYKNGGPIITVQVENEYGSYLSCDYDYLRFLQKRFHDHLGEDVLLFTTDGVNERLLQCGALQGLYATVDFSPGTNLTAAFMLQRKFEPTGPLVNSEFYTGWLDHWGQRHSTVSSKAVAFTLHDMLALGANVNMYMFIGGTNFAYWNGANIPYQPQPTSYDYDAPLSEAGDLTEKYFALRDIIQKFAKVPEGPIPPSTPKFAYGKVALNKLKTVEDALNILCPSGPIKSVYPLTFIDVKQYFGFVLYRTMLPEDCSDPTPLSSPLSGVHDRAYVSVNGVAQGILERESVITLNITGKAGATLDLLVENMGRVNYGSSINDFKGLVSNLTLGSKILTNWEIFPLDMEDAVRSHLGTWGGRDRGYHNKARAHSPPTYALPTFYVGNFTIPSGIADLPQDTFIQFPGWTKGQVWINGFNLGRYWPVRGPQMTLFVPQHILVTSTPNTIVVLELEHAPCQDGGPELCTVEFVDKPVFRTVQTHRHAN
Description: as §1, §2

T4 sequence (Q653V7 34-885): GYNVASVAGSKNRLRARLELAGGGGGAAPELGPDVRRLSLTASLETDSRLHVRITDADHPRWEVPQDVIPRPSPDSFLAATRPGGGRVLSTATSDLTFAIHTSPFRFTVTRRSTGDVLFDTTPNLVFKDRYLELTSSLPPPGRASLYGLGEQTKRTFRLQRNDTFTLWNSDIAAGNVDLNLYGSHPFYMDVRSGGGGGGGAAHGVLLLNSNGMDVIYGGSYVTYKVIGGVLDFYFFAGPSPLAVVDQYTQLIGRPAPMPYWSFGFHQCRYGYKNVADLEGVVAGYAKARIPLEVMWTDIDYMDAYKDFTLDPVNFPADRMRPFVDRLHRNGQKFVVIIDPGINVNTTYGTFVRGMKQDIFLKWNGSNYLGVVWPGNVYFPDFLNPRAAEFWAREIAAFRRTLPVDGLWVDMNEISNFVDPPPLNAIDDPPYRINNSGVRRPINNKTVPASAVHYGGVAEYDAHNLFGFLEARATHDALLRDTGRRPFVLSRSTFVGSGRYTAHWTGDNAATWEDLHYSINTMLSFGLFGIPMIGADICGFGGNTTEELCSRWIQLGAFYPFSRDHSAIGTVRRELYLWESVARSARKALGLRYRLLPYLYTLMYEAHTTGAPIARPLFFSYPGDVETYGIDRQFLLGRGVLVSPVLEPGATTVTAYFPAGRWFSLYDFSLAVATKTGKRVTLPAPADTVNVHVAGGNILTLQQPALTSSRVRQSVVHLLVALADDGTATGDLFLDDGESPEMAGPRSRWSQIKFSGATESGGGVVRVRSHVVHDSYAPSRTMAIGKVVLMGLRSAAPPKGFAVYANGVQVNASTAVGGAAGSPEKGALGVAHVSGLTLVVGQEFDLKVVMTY
T2 sequence (Q42656 16-378): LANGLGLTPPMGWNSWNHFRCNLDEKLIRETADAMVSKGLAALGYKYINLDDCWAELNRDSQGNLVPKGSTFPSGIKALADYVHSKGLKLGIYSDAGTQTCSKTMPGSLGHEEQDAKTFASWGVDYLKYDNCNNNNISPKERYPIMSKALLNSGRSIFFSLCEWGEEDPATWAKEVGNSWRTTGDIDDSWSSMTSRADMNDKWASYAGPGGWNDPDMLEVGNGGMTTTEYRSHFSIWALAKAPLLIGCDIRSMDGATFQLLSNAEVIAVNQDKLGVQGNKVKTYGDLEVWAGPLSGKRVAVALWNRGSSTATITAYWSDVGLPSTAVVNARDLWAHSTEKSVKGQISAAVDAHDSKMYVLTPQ

SMILES	β-D-mannosidase (C. fimi) [1] [%]	α-D-glucosidase (Bacillus) [2] [%]	IC50 [3] [µM]	α-D-galactosidase (Green coffee beans) [4] [%]	α-L-fucosidase (Bovine) (α-L-fucosidase (bovine)) [%]	N-acetyl-β-D-gluc (Bovine kidney) [5] [%]	α-D-glucosidase (Rice) (α-D-glucosidase (rice)) [%]	β-D-galactosidase (Bovine) [6] [%]
O=C(O)CN1C[C@H](O)[C@@H](O)[C@H](O)[C@H]1CO [DNJ-N-ethanoic, DNJ-ethanoic acid]	−10	9.1	208	−8	5	84	100	2
O=C(O)CCN1C[C@H](O)[C@@H](O)[C@H](O)[C@H]1CO [DNJ-N-propanoic, DNJ-N-propanoic acid]	−5	45.0	340	15	11	86	100	12
O=C(O)CN1C[C@@H](O)[C@H](O)[C@H]1CO [DAB-N-ethanoic, DAB-N-ethanoic acid]	−5	24.2	523	−5	3	82	42	0
OC[C@H]1NC[C@H](O)[C@@H](O)[C@@H]1O [DNJ, 1 deoxynojirmycin]	−19	100		−3	6	0	100	0
